pEC50, pIC50: −log10 of the molar value.
Columns and labels:
[1] = biological target: PI3Kδ (Homo sapiens (Human), UniProt O00329); assay: Enzymatic activity of PI3K isoforms, TR-FRET assay (PI3Kδ); assay type: biochemical; settings: 2× Km ATP, geometric mean if more than one value
Experimental: Enzymatic activity of the class I PI3K isoforms in the presence of the compounds of Table 1 and Compounds X, Y and Z was measured using a time-resolved fluorescence resonance energy transfer (TR-FRET) assay. The TR-FRET assay was used to monitor formation of the product 3,4,5-inositol triphosphate molecule (PIP3) as it competed with fluorescently labeled PIP3 for binding to the GRP-1 pleckstrin homology domain protein. An increase in […] product results in a decrease in TR-FRET signal as the labeled fluorophore is displaced from the GRP-1 protein binding site.
Class I PI3K isoforms were expressed and purified as heterodimeric recombinant proteins. All assay reagents and buffers for the TR-FRET assay were purchased from Millipore. PI3K isoforms were assayed under initial rate conditions in the presence of 25 mM Hepes (pH 7.4), and 2× Km ATP (75-500 μM), 2 μM PIP2, 5% glycerol, 5 mM MgCl2, 50 mM NaCl, 0.05% (v/v) Chaps, 1 mM dithiothreitol, 1% (v/v) DMSO at the following concentrations for each isoforms: PI3Kα, PI3Kβ, and PI3Kδ between 25 and 50 pM, and PI3Kγ at 2 nM. After an assay reaction time of 30 minutes at 25° C., reactions were terminated with a final concentration of 10 mM EDTA, 10 nM labeled-PIP3, and 35 nM Europium labeled GRP-1 detector protein before reading TR-FRET on an Envision plate reader (Ex: 340 nm; Em: 615/665 nm; […] delay and 500 μs read window).
Data were normalized based on positive ([…] wortmanin) and negative (DMSO) controls. α, β, δ, and γ IC50 values were calculated from the fit of the dose-response curves to a four-parameter equation. All IC50 values represent geometric mean values if more than one value was obtained. IC50 values were reported in units of nM.

[2] = tested on: basophils; assay: Basophil activation in human whole blood (Flow2 CAST kit, CD63 flow cytometry); assay type: cell-based; settings: human whole blood, basophils activated with anti-FcεRI mAb or fMLP, percent CD63 positive cells
Experimental: Effect on basophil activation was measured in human whole blood using the Flow2 CAST® kit (Buhlmann Laboratories AG, Baselstrasse, Switzerland) following the protocol provided by the manufacturer with minor modifications. Human whole blood was collected into K2-EDTA venipuncture tubes. Whole blood samples were treated with either DMSO (0.3% final) or a serial dilution of compounds in DMSO for 60 minutes at 37° C. Basophils were then activated either with anti-FcεRI mAb or with fMLP. To activate basophils using the anti-FcεRI mAb; 50 μL of whole blood was mixed with 110 μL of stimulation buffer (B-BAT-STB) and 20 μl of anti-FcεRI (B-BAT-STCON). To activate basophils with fMLP; 50 μL of whole blood was mixed with 80 μL of stimulation buffer (B-BAT-STB) and 50 μL of fMLP (B-CCR-FMLP). Stimulation buffer was used as a negative control. 20 μL of the staining reagent (combination of anti-human CD63-FITC and anti-human CCR3-PE mAbs) was then added to each tube. The tubes were mixed gently and incubated for 25 minutes at 37° C. Subsequently, erythrocytes were lysed and fixed by the addition of 2 mL of lysing solution (B-BAT-LYR) for 10 minutes at room temperature. Cells were pelleted by centrifugation at 1200 rpm for 10 minutes at room temperature in a swing-out rotor. Supernatant was aspirated and cell pellet resuspended in 400 μL of wash buffer. Flow cytometric analysis of the basophil activation was performed on a FC500MPL flow cytometer (Beckman Coulter Inc., Fullerton, Calif.). CCR3-staining and side scatter were applied to gate at least 200 basophils that expressed a high density of CCR3. The percent CD63 positive cells within the gated basophil population were determined in different treatment groups and normalized to the vehicle control (0.3% DMSO) with anti-FcεRI mAb of fMLP stimulus as 100%. Final compound concentration was adjusted to correct for dilution effect of added reagents. The EC50 values were calculated from the analysis of the dose-response curves to a four-parameter equation.

PI3Kδ, sequence (O00329 whole entry, the tested form may be a part, canonical isoform): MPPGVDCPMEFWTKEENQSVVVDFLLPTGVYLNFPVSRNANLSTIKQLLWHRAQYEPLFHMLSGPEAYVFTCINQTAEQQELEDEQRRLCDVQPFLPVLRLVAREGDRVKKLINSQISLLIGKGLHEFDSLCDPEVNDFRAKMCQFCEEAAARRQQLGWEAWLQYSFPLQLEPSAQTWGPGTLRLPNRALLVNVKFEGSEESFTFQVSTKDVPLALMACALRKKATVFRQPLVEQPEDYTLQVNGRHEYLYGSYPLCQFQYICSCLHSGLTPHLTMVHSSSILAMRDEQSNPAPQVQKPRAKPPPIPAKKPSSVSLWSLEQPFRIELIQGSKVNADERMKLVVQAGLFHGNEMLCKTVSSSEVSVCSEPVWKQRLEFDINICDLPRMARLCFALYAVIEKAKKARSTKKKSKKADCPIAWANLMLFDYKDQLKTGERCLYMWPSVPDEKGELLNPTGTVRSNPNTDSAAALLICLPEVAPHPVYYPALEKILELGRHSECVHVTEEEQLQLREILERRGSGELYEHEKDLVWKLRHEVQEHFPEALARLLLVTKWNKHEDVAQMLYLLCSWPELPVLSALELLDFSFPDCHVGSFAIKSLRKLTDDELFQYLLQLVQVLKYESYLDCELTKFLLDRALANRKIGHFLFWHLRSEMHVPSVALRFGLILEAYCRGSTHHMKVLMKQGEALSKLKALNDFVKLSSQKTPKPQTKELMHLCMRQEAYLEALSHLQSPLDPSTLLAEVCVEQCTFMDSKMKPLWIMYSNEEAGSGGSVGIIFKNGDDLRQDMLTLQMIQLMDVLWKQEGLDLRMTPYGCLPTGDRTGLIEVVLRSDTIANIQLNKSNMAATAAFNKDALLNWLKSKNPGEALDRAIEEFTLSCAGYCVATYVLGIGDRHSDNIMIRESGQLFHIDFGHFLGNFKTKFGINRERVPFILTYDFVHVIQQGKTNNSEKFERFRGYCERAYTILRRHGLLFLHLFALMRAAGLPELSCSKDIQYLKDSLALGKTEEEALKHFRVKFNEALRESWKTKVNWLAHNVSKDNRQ
PI3Kδ, sequence (P27986 whole entry partner, the tested form may be a part, canonical isoform): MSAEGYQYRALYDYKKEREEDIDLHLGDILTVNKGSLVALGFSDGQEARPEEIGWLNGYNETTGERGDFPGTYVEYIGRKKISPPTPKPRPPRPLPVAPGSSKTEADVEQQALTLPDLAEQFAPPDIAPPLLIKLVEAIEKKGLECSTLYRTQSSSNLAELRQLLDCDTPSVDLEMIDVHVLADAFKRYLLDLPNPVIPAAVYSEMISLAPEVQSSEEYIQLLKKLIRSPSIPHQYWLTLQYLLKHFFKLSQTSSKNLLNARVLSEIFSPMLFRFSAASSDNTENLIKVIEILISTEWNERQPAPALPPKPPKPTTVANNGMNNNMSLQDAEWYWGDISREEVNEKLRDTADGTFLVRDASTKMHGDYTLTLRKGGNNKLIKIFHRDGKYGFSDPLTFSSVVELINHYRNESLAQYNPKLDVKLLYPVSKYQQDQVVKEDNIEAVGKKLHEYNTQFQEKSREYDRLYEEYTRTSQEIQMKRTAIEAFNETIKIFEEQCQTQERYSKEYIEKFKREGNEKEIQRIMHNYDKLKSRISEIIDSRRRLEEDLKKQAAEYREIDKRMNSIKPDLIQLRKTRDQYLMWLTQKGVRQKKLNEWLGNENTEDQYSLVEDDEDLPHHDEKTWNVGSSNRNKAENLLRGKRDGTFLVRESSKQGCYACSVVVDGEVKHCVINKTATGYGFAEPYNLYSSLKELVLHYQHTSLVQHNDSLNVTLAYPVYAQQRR

Row | Compound | pIC50 [1] | further results
1 | Cc1ncccc1-n1c([C@H](C)Nc2nc(N)nc(N)c2C#N)nc2cccc(Cl)c2c1=O (atropisomer, axis not shown) [Compound 38, (S)-2,4-diamino-6-(1-(5-chloro-3-(2-methylpyridin-3-yl)-4-oxo-3,4-dihydroquinazolin-2-yl)ethylamino)pyrimidine-5-carbonitrile] | 7.89 | pEC50 ([2]; Homo sapiens, class symbol): 8.00 to 9.00; pEC50 ([2]; geometric mean): 8.05
2 | Cc1ccncc1-n1c([C@H](C)Nc2nc(N)nc(N)c2C#N)nc2cccc(Cl)c2c1=O (atropisomer, axis not shown) [Compound 40, (S)-2,4-diamino-6-(1-(5-chloro-3-(4-methylpyridin-3-yl)-4-oxo-3,4-dihydroquinazolin-2-yl)ethylamino)pyrimidine-5-carbonitrile] | 8.05 | pEC50 ([2]; Homo sapiens, class symbol): 8.00 to 9.00; pEC50 ([2]; Homo sapiens, geometric mean): 8.15
3 | Cc1ccncc1-n1c([C@H](C)Nc2nc(N)nc(N)c2C#N)nc2ccc(F)c(Cl)c2c1=O (atropisomer, axis not shown) [Compound 42, (S)-2,4-diamino-6-(1-(5-chloro-6-fluoro-3-(4-methylpyridin-3-yl)-4-oxo-3,4-dihydroquinazolin-2-yl)ethylamino)pyrimidine-5-carbonitrile] | 7.57 | pEC50 ([2]; Homo sapiens, class symbol): 8.00 to 9.00; pEC50 ([2]; geometric mean): 8.10
4 | Cc1ccncc1-n1c([C@H](C)Nc2nc(N)nc(N)c2C#N)nc2ccc(F)c(Cl)c2c1=O (atropisomer, axis not shown) [Compound 43, (S)-2,4-diamino-6-(1-(5-chloro-6-fluoro-3-(4-methylpyridin-3-yl)-4-oxo-3,4-dihydroquinazolin-2-yl)ethylamino)pyrimidine-5-carbonitrile] | 8.40 | pEC50 ([2]; class symbol): 8.00 to 9.00; pEC50 ([2]; geometric mean): 8.70
5 | C[C@H](Nc1nc(N)nc(N)c1Cl)c1nc2cccc(Cl)c2c(=O)n1-c1cccnc1 [Compound 53, (S)-5-Chloro-2-(1-((2,6-diamino-5-chloropyrimidin-4-yl)amino)ethyl)-3-(pyridin-3-yl)quinazolin-4(3H)-on] | 8.40 | –
6 | C[C@H](Nc1nc(N)nc(N)c1C#N)c1nc2c(C#N)cc(F)cc2c(=O)n1-c1cccnc1 [Compound 54, (S)-2-(1-((2,6-Diamino-5-cyanopyrimidin-4-yl)amino)ethyl)-6-fluoro-4-oxo-3-(pyridin-3-yl)-3,4-dihydroquinazoline-8-carbonitrile] | 8.00 | –
7 | CC[C@H](Nc1nc(N)nc(N)c1C#N)c1nc2c(C#N)cc(F)cc2c(=O)n1-c1cncc(F)c1 [Compound 55, (S)-2-(1-((2,6-Diamino-5-cyanopyrimidin-4-yl)amino)propyl)-6-fluoro-3-(5-fluoropyridin-3-yl)-4-oxo-3,4-dihydroquinazoline-8-carbonitrile] | 7.22 | –
8 | N#Cc1c(N)nc(N)nc1N[C@H](c1nc2c(C#N)cc(F)cc2c(=O)n1-c1cncc(F)c1)C1CC1 [Compound 56, (S)-2-(Cyclopropyl((2,6-diamino-5-cyanopyrimidin-4-yl)amino)methyl)-6-fluoro-3-(5-fluoropyridin-3-yl)-4-oxo-3,4-dihydroquinazoline-8-carbonitrile] | 7.52 | –
9 | CC(C)C[C@H](Nc1nc(N)nc(N)c1C#N)c1nc2cccc(Cl)c2c(=O)n1-c1cncc(F)c1 [Compound 57, (S)-2,4-Diamino-6-((1-(5-chloro-3-(5-fluoropyridin-3-yl)-4-oxo-3,4-dihydroquinazolin-2-yl)-3-methylbutyl)amino)pyrimidine-5-carbonitrile] | 7.85 | –
10 | CC(C)C[C@H](Nc1nc(N)nc(N)c1C#N)c1nc2cccc(Cl)c2c(=O)n1-c1cccnc1 [Compound 58, (S)-2,4-Diamino-6-((1-(5-chloro-4-oxo-3-(pyridin-3-yl)-3,4-dihydroquinazolin-2-yl)-3-methylbutyl)amino)pyrimidine-5-carbonitrile] | 7.85 | –
11 | N#Cc1ccc(F)c2nc([C@@H](Nc3nc(N)nc(N)c3Cl)C3CC3)n(-c3cccnc3)c(=O)c12 [Compound 59, (S)-2-(cyclopropyl((2,6-diamino-5-chloropyrimidin-4-yl)amino)methyl)-8-fluoro-4-oxo-3-(pyridin-3-yl)-3,4-dihydroquinazoline-5-carbonitrile] | 6.42 | –
12 | C[C@H](Nc1nc(N)nc(N)c1C#N)c1nc2c(F)ccc(Br)c2c(=O)n1-c1cncc(F)c1 [Compound 60, (S)-2,4-diamino-6-((1-(5-bromo-8-fluoro-3-(5-fluoropyridin-3-yl)-4-oxo-3,4-dihydroquinazolin-2-yl)ethyl)amino)pyrimidine-5-carbonitrile] | 9.00 | –
13 | CC[C@H](Nc1nc(N)nc(N)c1C#N)c1nc2c(F)ccc(Br)c2c(=O)n1-c1cccnc1 [Compound 61, (S)-2,4-diamino-6-((1-(5-bromo-8-fluoro-4-oxo-3-(pyridin-3-yl)-3,4-dihydroquinazolin-2-yl)propyl)amino)pyrimidine-5-carbonitrile] | 9.00 | –
14 | C[C@H](Nc1nc(N)nc(N)c1C#N)c1nc2c(F)ccc(C#N)c2c(=O)n1-c1cncc(F)c1 [Compound 62, (S)-2-(1-((2,6-diamino-5-cyanopyrimidin-4-yl)amino)ethyl)-8-fluoro-3-(5-fluoropyridin-3-yl)-4-oxo-3,4-dihydroquinazoline-5-carbonitrile] | 7.38 | –
15 | C[C@H](Nc1nc(N)nc(N)c1Cl)c1nc2cccc(C#N)c2c(=O)n1-c1cccnc1 [Compound 63, (S)-2-(1-((2,6-diamino-5-chloropyrimidin-4-yl)amino)ethyl)-4-oxo-3-(pyridin-3-yl)-3,4-dihydroquinazoline-5-carbonitrile] | 7.02 | –
16 | C[C@H](Nc1nc(N)nc(N)c1C#N)c1nc2c(F)ccc(Br)c2c(=O)n1-c1cccnc1 [Compound 64, (S)-2,4-diamino-6-((1-(5-bromo-8-fluoro-4-oxo-3-(pyridin-3-yl)-3,4-dihydroquinazolin-2-yl)ethyl)amino)pyrimidine-5-carbonitrile] | 9.22 | –
17 | C[C@@H](Nc1nc(N)nc(N)c1C#N)c1nc2c(F)ccc(Cl)c2c(=O)n1-c1cccnc1 [Compound 110, (R)-2,4-Diamino-6-((1-(5-chloro-8-fluoro-4-oxo-3-(pyridin-3-yl)-3,4-dihydroquinazolin-2-yl)ethyl)amino)pyrimidine-5-carbonitrile] | 7.21 | –
18 | CC[C@@H](Nc1nc(N)nc(N)c1C#N)c1nc2c(F)ccc(Cl)c2c(=O)n1-c1cccnc1 [Compound 111, (R)-2,4-Diamino-6-((1-(5-chloro-8-fluoro-4-oxo-3-(pyridin-3-yl)-3,4-dihydroquinazolin-2-yl)propyl)amino)pyrimidine-5-carbonitrile] | 8.05 | –
19 | N#Cc1c(N)nc(N)nc1N[C@@H](c1nc2c(F)ccc(Cl)c2c(=O)n1-c1cccnc1)C1CC1 [Compound 112, (R)-2,4-Diamino-6-(((5-chloro-8-fluoro-4-oxo-3-(pyridin-3-yl)-3,4-dihydroquinazolin-2-yl)(cyclopropyl)methyl)amino)pyrimidine-5-carbonitrile] | 8.15 | –
20 | C[C@@H](Nc1nc(N)nc(N)c1C#N)c1nc2c(F)ccc(Cl)c2c(=O)n1-c1cncc(F)c1 [Compound 113, (R)-2,4-Diamino-6-((1-(5-chloro-8-fluoro-3-(5-fluoropyridin-3-yl)-4-oxo-3,4-dihydroquinazolin-2-yl)ethyl)amino)pyrimidine-5-carbonitrile] | 6.21 | –

Source: patent publication US9221795B2, “Phosphatidylinositol 3-kinase inhibitors” (Gilead Sciences, Inc., priority 2013, dated 2015)
